The values that follow come from ChEMBL document CHEMBL1155836, “Discovery of imidazole carboxamides as potent and selective CCK1R agonists” (Bioorg Med Chem Lett, 2008).

The source made the active and inactive calls. Some results are limits rather than exact numbers.

Data set [1] addresses Cholecystokinin receptor type A (Mus musculus, UniProt O08786). The data set is described as follows: Agonist activity against mouse CCK1 receptor. The data set is classed as functional.
The test system of data set [2] is Mus musculus. The data set is described as follows: Reduction in overnight food intake in lean mouse at 0.3 mg/kg, po. More on the design: scale not given: the % may be the effect or the level left. The data set is classed as functional.
Data set [3] has as its system Mus musculus. The data set is described as follows: Reduction in overnight food intake in lean mouse at 3 mg/kg, po. More on the design: scale not given: the % may be the effect or the level left. The data set is classed as functional.
Data set [4] can be described thus: Clearance in mouse at 1.0 mg/kg, iv and 10 mg/kg, po. The data set is classed as ADME, organism-based. The settings on record: in vivo.
Data set [5] in a line: Volume of distribution in mouse at 1.0 mg/kg, iv and 10 mg/kg, po. The format is ADME, organism-based. The settings on record: in vivo.
A short description of data set [6]: Half life in mouse at 1.0 mg/kg, iv and 10 mg/kg, po. The data set is classed as ADME, organism-based. The settings on record: in vivo.
Data set [7] concerns Mus musculus. The data set is described as follows: Cmax in mouse at 1.0 mg/kg, iv and 10 mg/kg, po. The settings on record: in vivo. The data set is classed as ADME, organism-based.
A short description of data set [8]: Oral bioavailability in mouse at 10 mg/kg. The data set is classed as ADME, organism-based. The settings on record: in vivo.
Data set [9] deals with T1, Gastrin/cholecystokinin type B receptor (Homo sapiens) (UniProt P32239).
T1 sequence (whole entry): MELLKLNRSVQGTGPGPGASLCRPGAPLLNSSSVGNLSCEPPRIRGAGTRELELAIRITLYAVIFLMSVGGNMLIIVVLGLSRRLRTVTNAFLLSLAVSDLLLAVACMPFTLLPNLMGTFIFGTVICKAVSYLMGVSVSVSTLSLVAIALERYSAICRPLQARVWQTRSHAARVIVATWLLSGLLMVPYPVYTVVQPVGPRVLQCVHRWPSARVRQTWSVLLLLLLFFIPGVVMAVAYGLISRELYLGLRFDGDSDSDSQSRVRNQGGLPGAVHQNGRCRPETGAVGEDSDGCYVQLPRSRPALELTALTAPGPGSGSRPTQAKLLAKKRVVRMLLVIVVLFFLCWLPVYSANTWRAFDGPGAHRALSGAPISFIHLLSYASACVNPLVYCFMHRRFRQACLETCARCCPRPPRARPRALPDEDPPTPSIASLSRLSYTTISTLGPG
The data set is described as follows: Agonist activity against human CCK2 receptor. The format is functional.

Data set [10] deals with T1, Gastrin/cholecystokinin type B receptor (Homo sapiens). The data set is described as follows: Agonist activity against human CCK2 receptor assessed as receptor activation at 10000 nM. The data set is classed as functional.
For data set [11], the system named is Mus musculus. The data set is described as follows: Gallbladder emptying activity in mouse assessed as reduction of gallbladder weight at 0.1 mg/kg, po. The format is functional, organism-based. More on the design: dose 0.1 mg/kg.
In data set [12] the target is T2, Cholecystokinin receptor type A (Homo sapiens) (UniProt P32238).
T2 sequence (whole entry): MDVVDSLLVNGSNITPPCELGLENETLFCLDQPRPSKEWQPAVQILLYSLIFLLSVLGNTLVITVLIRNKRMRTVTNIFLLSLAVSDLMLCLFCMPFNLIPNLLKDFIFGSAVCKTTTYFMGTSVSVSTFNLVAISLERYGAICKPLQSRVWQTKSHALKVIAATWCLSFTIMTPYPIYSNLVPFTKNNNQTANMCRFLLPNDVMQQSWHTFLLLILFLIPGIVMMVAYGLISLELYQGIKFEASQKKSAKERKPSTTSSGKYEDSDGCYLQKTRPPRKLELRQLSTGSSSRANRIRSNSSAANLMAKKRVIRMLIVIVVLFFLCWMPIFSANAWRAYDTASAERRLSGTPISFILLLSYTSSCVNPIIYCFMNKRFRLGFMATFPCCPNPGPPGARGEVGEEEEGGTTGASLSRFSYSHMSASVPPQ
The data set is described as follows: Agonist activity against human CCK1 receptor assessed as receptor activation at 10000 nM. The data set is classed as functional.

Data set [13] deals with T1, Gastrin/cholecystokinin type B receptor (Homo sapiens). The data set is described as follows: Inhibition of human CCK2 receptor at 10000 nM.
Data set [14] deals with Mus musculus. The data set is described as follows: Gallbladder emptying activity in mouse assessed as reduction of gallbladder weight at 0.3 mg/kg, po. The format is functional. More on the design: scale not given: the % may be the effect or the level left.
Data set [15] concerns the target T3, Cholecystokinin receptor type A (Homo sapiens, UniProt P32238).
T3 sequence (P32238 whole entry): T2 sequence (whole entry)
The data set is described as follows: Agonist activity against human CCK1 receptor. The format is functional.

For data set [16], the target named is T3, Cholecystokinin receptor type A. The data set is described as follows: Inhibition of human CCK1 receptor.
The target in data set [17] is T4, Gastrin/cholecystokinin type B receptor (Homo sapiens, UniProt P32239).
T4 sequence (P32239 whole entry): T1 sequence (whole entry)
The data set is described as follows: Inhibition of human CCK2 receptor.

Cholecystokinin receptor type A (Mus musculus, UniProt O08786), sequence (O08786 whole entry, looked up): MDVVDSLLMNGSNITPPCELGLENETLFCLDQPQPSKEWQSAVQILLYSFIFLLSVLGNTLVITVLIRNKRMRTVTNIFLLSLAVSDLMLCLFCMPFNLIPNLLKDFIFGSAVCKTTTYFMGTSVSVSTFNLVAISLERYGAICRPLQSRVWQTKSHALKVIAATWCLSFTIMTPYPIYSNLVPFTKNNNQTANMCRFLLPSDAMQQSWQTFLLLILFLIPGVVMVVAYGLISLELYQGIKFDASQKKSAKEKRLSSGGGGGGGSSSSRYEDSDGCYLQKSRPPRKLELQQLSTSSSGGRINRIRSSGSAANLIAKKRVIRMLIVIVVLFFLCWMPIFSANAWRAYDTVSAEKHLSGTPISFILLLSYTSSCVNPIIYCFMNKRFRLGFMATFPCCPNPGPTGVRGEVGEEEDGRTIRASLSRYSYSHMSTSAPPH

`CCOc1cccc(-n2cc(C(=O)N3CCN(c4cc(C(=O)[O-])c5ccccc5c4)CC3)nc2-c2ccc(C)cc2)c1.[Na+]`: in data set [1], the EC50 (as a rule, the concentration needed to bring the measured effect to its halfway point) was 0.78 nM. For the same compound, the results for the Activity with Mus musculus [2] and with Mus musculus [3] were 29% and 78%, respectively. In addition, in data set [4], the clearance came out at 3.1 mL/min/kg. Also, in data set [5], the Vd amounted to 0.56 L/kg. Also, the half-life (as a rule, the time needed for the level to fall by half in the phase considered) in data set [6] was 3.4 h. Further, in the data set with Mus musculus [7], the concentration peaked (Cmax) at 4.9 µM. In addition, the bioavailability (in general, dose-corrected exposure relative to a reference, in per cent) in data set [8] stood at 43%.
With `CCOc1cccc(-n2cc(C(=O)N3CCN(c4cnc5ccccc5c4)CC3)nc2-c2ccc(C)cc2)c1` [listing 1 of 2 here], the outcome (in data set [9]; in the data set on Mus musculus [11]) was inactive. Besides, the results for the Activity in data set [10] and in data set [12] were < 36% and 105%, respectively. Further, the inhibition (usually the relative decrease from the control value, in per cent) in data set [13] was < 24%.
Turning to `CCOc1cccc(-n2cc(C(=O)N3CCN(c4cnc5ccccc5c4)CC3)nc2-c2ccc(C)cc2)c1` [listing 2 of 2 here], the Activity in the data set with Mus musculus [14] was 59%. For the same compound, in [15], the EC50 was found to be 0.73 nM. Besides, the IC50 (in general, the point on the concentration scale where inhibition reaches its midpoint) in [16] is 0.45 nM; in data set [17], > 10000 nM.
